Experimental data taken from patent publication US8604198B2, “Salt of proline derivative, solvate thereof, and production method thereof” (Mitsubishi Tanabe Pharma Corporation, priority 2005, dated 2013).

Legend:
Format in all cases: physicochemical
[1] = Measurement of solubility in water (visual observation); details: 37° C., shaken 1 hr
Description: As a measurement method, visual observation was used, which permits convenient evaluation of rough solubility with a small amount of sample. The temperature during measurement was 37° C. About 3 mg of the title compound of Example 3 was taken in a sample bottle with a screw cap, a test solution (0.15 mL) was added and the cap was screwed tightly thereon. The sample was ultrasonicated for 1 min to give a dispersion, which was placed in a shaking-type thermostat water bath stabilized at 37° C. and shaken for 1 hr. Then, dissolution was confirmed by visual observation.

[2] = Measurement of solubility at pH 9-13 (HPLC)
Description: Using 0.2 mol/L NaOH/0.1 mol/L NaCl mixed solution as a test solution, the solubility of the title compound of Example 3 having a pH of 9-13 at room temperature was analyzed by liquid chromatography (HPLC) (n=3). […] From the foregoing, the solubility of the title compound of Example 3 was concluded to be about 7 mg/mL.

[3] = Measurement of hygroscopicity (moisture adsorption measurement); details: 25° C., reduced pressure type moisture adsorption measurement apparatus
Description: The hygroscopicity of the title compound of Example 3 was measured under the following conditions using a moisture adsorption measurement apparatus. • apparatus: MB-300G manufactured by VTI • measurement temperature: 25° C. • measurement range: 0-95% RH
The title compound of Example 3 was subjected to a moisture adsorption measurement using a reduced pressure type moisture adsorption measurement apparatus.

solubility in water [1]: not less than 20 mg/mL
Solubility ([2]; pH 8.81, 25° C.): 8400 µg/mL
solubility (concluded) ([2]; pH 9-13, room temperature, conclusion from the measured range): about 7 mg/mL
Solubility ([2]; pH 11.94, 25° C.): 7200 µg/mL
Solubility ([2]; pH 11.98, 25° C.): 7900 µg/mL
Solubility ([2]; pH 12.10, 25° C.): 7200 µg/mL
Solubility ([2]; pH 12.26, 25° C.): 7800 µg/mL
Solubility ([2]; pH 12.70, 25° C.): 6400 µg/mL
Solubility ([2]; pH 12.99, 25° C.): 6800 µg/mL
state of water content ([3]; 0% RH): almost completely dry
water maintained, corresponding to hydrate ([3]; 50% RH): 1.8 hydrate
SMILES: Br.Br.Br.Br.Br.Cc1cc(N2CCN([C@@H]3CN[C@H](C(=O)N4CCSC4)C3)CC2)n(-c2ccccc2)n1.Cc1cc(N2CCN([C@@H]3CN[C@H](C(=O)N4CCSC4)C3)CC2)n(-c2ccccc2)n1 [Example 3, 3-{(2S,4S)-4-[4-(3-methyl-1-phenyl-1H-pyrazol-5-yl)piperazin-1-yl]pyrrolidin-2-ylcarbonyl}thiazolidine 2.5 hydrobromide]
